For series [1] the following is noted: compared to the (R+)-enantiomer; cited from earlier work.
The subject of series [2] is patients having a high BMI (≥30). The experiment in a line: Study 1: prophylaxis of PONV in patients with a high BMI (complete response and secondary endpoints). The series is classed as in vivo, human. The note with it: for CR (PONV) 0-2 hours / CR (PONV) 0-24 hours / CR (emesis) / CR (nausea) / CR (severe nausea): prophylactic therapy, 5 mg. On the procedure:
(§1) A randomised, double-blind, placebo-controlled study of amisulpride for IV injection as treatment against post-operative nausea and vomiting in patients having a high BMI (≥30) was conducted. The primary aim of the study was to compare the efficacy of 5 mg and 10 mg amisulpride to placebo as treatment or prevention of PONV, in patients with a high BMI.
(§2) The study was performed in adult patients (≥18 years) having a BMI ≥30 who were undergoing elective ambulatory (day-case) or in-patient surgery under general inhalational anaesthesia for an expected duration of at least one hour from induction of anaesthesia to extubation.
(§3) Amisulpride at a dose of 5 mg (prophylaxis) or 10 mg (rescue treatment) or matching placebo was given once by slow IV administration, over about 2 minutes.
(§4) The primary efficacy variable was the absence or presence of PONV during the 24-hour post-operative period, where PONV was defined as the occurrence of one or more emetic episodes (vomiting and/or retching) or the receipt of one or more doses of rescue anti-emetic medication in the 24 hours after wound closure (prophylaxis study) or dosing (treatment study). Absence of PONV by this definition was termed “Complete Response” (CR). A number of secondary variables were evaluated including the occurrence of emesis (vomiting and/or retching).
(§5) A comparison of the incidence of CR in the 0-2 and 0-24 hour periods after surgery between the amisulpride group and the placebo group using Pearson's X2 test with Yates's continuity correction at a one-sided significance level of 2.5%. The primary efficacy analysis population was the modified intent-to-treat (mITT) population.
Secondary efficacy variables assessed by incidence (e.g., emesis) were compared between the groups using Pearson's X2 test.

Series [3] has as its system adult surgical patients at moderate-to-high risk of suffering PONV. The experiment in a line: Two Phase III placebo-controlled trials, PONV prophylaxis. The series is classed as in vivo, human. Conditions: 5 mg, 626 evaluable patients, vs 59% placebo, p<0.01.
The subject of series [4] is patients who had not received prior prophylaxis. The experiment in a line: Clinical trial, treatment of PONV in patients without prior prophylaxis. It is filed as in vivo, human. Conditions: doses of 5 mg and 10 mg; no difference between the doses. On the procedure:
In another clinical trial conducted by the applicant, amisulpride at doses of 5 mg and 10 mg were compared with placebo for the treatment of PONV, in patients who had not received prior prophylaxis.

The test system of series [5] is patients having a high BMI (≥30). The experiment in a line: Study 1: prophylaxis of PONV in patients with a high BMI (complete response and secondary endpoints). It is filed as in vivo, human. Conditions: IV 5 mg + another antiemetic.
Series [6] shares this test system. The experiment in a line: Study 1: rescue treatment of PONV in patients with a high BMI. The series is classed as in vivo, human. The note with it: for CR (PONV), rescue treatment: 10 mg. The procedure:
as §1, §2, §3, §4, §5

Series [7] has as its system bariatric surgery patients. The experiment in a line: Study 1: complete response in bariatric surgery patients (prophylaxis and rescue treatment). It is filed as in vivo, human. The procedure: (§6) The present invention is based on the results of a Phase III study of amisulpride as prophylaxis against PONV in high-risk patients, conducted by the applicant. The Phase III study results include data from two randomized, double-blind, placebo-controlled, multi-centre Phase III trials of amisulpride, either as a prophylaxis, or rescue treatment for PONV.
as §3, §4

Series [8] has as its system patients undergoing bariatric surgery. The experiment in a line: Study 1: treatment-emergent adverse events in patients undergoing bariatric surgery. The series is classed as in vivo, human. Conditions: 5 mg prophylaxis or 10 mg rescue treatment, n = 53. On the procedure: as §6, §3
The next series concerns patients with BMI ≥35. The experiment in a line: Study 1: treatment-emergent adverse events, prophylaxis in patients with BMI ≥35. The series is classed as in vivo, human. The procedure:
as §1, §2, §3

The subject of series [9] is adult surgical patients at moderate-to-high risk of suffering PONV. The experiment in a line: Phase II dose-ranging trial, IV amisulpride as PONV prophylaxis. The note with it: for incidence of PONV: prophylaxis. The series is classed as in vivo, human. The procedure: In a multi-centre, double-blind, randomised, dose-ranging Phase II trial (conducted by the applicant), amisulpride was given intravenously to adult surgical patients at moderate-to-high risk of suffering PONV (prophylaxis), at doses of 1 mg, 5 mg and 20 mg, with a fourth group receiving placebo.

Series [10] concerns adult surgical patients at high risk of suffering PONV. The experiment in a line: Phase III trial, amisulpride in combination with a standard anti-emetic, PONV prophylaxis. Conditions: 5 mg in combination with a standard anti-emetic, 1147 evaluable patients; vs 53% placebo combination, p<0.001. It is filed as in vivo, human.
[11] abbreviates: prophylaxis, IV 5 mg + another antiemetic, BMI ≥35, mITT, P 0.011.
[12] abbreviates: 5 mg prophylaxis, BMI ≥35, n = 149.

Entries after “also recorded” stand apart in the source; their conditions may differ.

On to `CCN1CCCC1CNC(=O)c1cc(S(=O)(=O)CC)c(N)cc1OC` (single isomer, unassigned) [(S−)-enantiomer, (S−)-amisulpride], for which the “share of the therapeutic activity of amisulpride” value in [1] was “almost all of the therapeutic activity”.
As for `CCN1CCCC1CNC(=O)c1cc(S(=O)(=O)CC)c(N)cc1OC` (racemic) [Amisulpride, amisulpride], the “CR (0-24 h), patients with CR/total” value is 71/149 in series [2] (5 mg prophylaxis, BMI ≥35, 42/129 for placebo); 71/149 in series [2] (setting [11]); 259/423 in series [5] (BMI <35, mITT, P 0.002); 330/572 in series [5] (all patients, mITT, P <0.001). The “secondary endpoints compared to placebo (FIGS. 1 and 2)” value in series [2] (5 mg prophylaxis, BMI ≥35, all secondary endpoints with the exception of emesis) is “statistically significantly superior to placebo”. Also, the “preventing PONV at 24 hours compared to placebo” value in series [2] (5 mg prophylaxis, overall study population and particularly BMI ≥35 subgroup) is listed as “more effective than placebo”. Also, the “absolute risk reduction, amisulpride versus placebo” value was determined as 15.10 in series [2] (patients with BMI ≥35 (printed 235), 0-24 h) and 10.50 in series [2] (patients with a BMI <35, 0-24 h). For the same molecule, the “relative risk reduction (RRR) of the incidence of PONV” value in series [2] (patients with a high BMI (printed 230), compared to RRR of the overall risk of PONV) is “much higher than expected”. The “CR (PONV) 0-2 hours” value in [2] (BMI ≥30, 251 patients) is 53.0%; in series [2] (BMI ≥35, 149 patients, p = 0.002) it was 73.8% (p = 0.002). The “CR (PONV) 0-24 hours” value in series [2] (BMI ≥30, 251 patients) is 53.0%; in [2] (BMI ≥35, 149 patients, p = 0.01), 47.7% (p = 0.01). Moreover, the “CR (emesis)” value is reported as 12.6% (251 patients) in series [2] (BMI ≥30, 251 patients) and 14.8% (149 patients) in series [2] (BMI ≥35, 149 patients). The “CR (nausea)” value is 55.0% (251 patients) in series [2] (BMI ≥30, 251 patients) and 58.4% (149 patients) in [2] (BMI ≥35, 149 patients). Besides, the “CR (severe nausea)” value in series [2] (BMI ≥30, 251 patients) is 41.8% (251 patients); in [2] (BMI ≥35, 149 patients) it was 45.0% (149 patients). Further, the “CR (0-24 h)” value in series [2] (setting [11]) is on record as “(47.7%)”; in series [5] (BMI <35, mITT, P 0.002), “(61.2%)”; in series [5] (all patients, mITT, P <0.001), “(57.7%)”. Besides, the “preventing PONV compared to placebo” value in series [2] (prophylaxis, patients with a high BMI) is “more effective than placebo”. The “safety and efficacy for prevention or treatment of PONV (overall conclusion)” value in [2] (single IV dose, patients with a high BMI and bariatric surgery population, post-hoc analysis) is “safe and effective; also recorded: safe and efficacious”. For the same molecule, the “incidence of PONV” value in series [3] is given as 48%; in series [9] (1 mg intravenously, p<0.05 vs placebo (69%)), 48%; in [9] (5 mg intravenously, p<0.01 vs placebo (69%)), 40%; in series [10] it was 42%. For the same molecule, in series [4], the “treating PONV compared to placebo” value is recorded as “significantly better than placebo”. Besides, the “CR (PONV), rescue treatment” value is reported as 46.6% (251 patients) in [6] (BMI ≥30, 251 patients) and 51.7% (149 patients) in series [6] (BMI ≥35, 149 patients). The “effectiveness as rescue treatment for PONV” value in series [6] (dose of 10 mg, prior prophylaxis drug given, high (≥30) BMI and/or bariatric surgery patients) is recorded as “particularly effective”. Further, the “CR rate, rescue treatment compared to placebo” value in series [6] (patients with a high BMI) is recorded as “higher”. Also, the “complete response rate (after 24 hours) compared to placebo” value in series [7] (bariatric surgery patients, amisulpride prophylaxis or rescue treatment) was “higher”. The “complete response rate at 24 hours” value is 18.2% in series [7] (bariatric surgery, amisulpride prophylaxis (5 mg), vs 7.3% placebo, P=0.16); 25.0% in series [7] (bariatric surgery, amisulpride rescue treatment (10 mg), vs 9.1% placebo, P=0.17); 20.8% in [7] (combined prophylaxis and rescue treatment bariatric subgroup, placebo 7.9%). The “complete response at 24 hours, patients/total” value in series [7] (combined prophylaxis and rescue treatment bariatric subgroup, placebo 5/63) is reported as 11/53. Further, in series [7] (human, in vivo), the “effectiveness for prophylaxis and rescue treatment of PONV in bariatric surgery patients vs other surgery types” value is “as effective”. Also, the “Number of patients with any adverse event” value in series [8] worked out at 30 n; with patients with BMI ≥35 (setting [12]), 79 n. In addition, the “Patients with any adverse event” value in series [8] is on record as “(57) %”; in the series with patients with BMI ≥35 (setting [12]) it was “(53) %”. Further, the “incidence of any treatment-emergent adverse events (TEAE) or serious adverse events (SAE), amisulpride vs placebo” value in the series with patients with BMI ≥35 (high BMI and bariatric subgroups) is on record as “No material difference”. Further, the “incidence of PONV compared to placebo” value in [9] (all amisulpride groups (1 mg, 5 mg and 20 mg)) is “lower”.

(Values after patent US20230263770A1, “THERAPY OF POST-OPERATIVE NAUSEA AND VOMITING” (ACACIA PHARMA LTD, priority 2020, published 2023).)
